Results on six compounds are retold here after ChEMBL document CHEMBL1201862, “PubChem BioAssay data set” (2004).

Holding throughout (assay type): functional
Experiment [1] deals with T1, Apoptotic protease-activating factor 1 (Homo sapiens, UniProt O14727).
T1 sequence (O14727 whole entry): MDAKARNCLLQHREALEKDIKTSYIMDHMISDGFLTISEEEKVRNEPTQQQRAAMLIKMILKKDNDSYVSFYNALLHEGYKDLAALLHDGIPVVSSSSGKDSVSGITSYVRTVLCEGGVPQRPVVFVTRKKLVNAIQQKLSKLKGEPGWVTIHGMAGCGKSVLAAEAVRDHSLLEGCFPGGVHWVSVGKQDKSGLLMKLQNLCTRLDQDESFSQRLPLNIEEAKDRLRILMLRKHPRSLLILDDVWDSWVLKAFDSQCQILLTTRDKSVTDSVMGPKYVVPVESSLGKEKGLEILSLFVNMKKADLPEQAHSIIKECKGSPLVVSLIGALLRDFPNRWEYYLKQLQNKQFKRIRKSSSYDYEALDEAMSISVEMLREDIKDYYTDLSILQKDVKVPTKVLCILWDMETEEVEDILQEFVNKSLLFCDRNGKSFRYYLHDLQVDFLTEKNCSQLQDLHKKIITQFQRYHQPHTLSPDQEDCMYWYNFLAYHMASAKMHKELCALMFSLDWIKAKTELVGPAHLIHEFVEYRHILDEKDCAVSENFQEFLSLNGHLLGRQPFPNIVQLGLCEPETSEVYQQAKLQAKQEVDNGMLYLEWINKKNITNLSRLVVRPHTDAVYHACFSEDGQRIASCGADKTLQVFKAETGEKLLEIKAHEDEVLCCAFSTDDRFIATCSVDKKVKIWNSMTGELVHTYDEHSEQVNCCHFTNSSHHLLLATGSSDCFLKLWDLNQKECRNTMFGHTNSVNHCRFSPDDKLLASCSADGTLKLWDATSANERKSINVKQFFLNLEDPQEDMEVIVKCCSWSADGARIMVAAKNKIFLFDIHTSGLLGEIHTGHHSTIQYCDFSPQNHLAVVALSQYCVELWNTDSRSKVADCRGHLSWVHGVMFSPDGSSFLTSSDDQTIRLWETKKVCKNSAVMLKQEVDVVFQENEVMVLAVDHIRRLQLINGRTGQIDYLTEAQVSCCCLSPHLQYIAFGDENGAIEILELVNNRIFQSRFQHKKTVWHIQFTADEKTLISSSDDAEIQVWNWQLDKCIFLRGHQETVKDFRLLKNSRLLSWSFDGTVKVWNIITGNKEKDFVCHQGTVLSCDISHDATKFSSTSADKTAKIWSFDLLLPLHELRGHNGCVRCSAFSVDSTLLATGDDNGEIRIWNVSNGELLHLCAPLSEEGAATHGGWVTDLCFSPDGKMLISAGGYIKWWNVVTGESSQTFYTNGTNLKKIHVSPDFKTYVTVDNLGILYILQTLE
Briefly: SAR analysis of small molecule Activators of Apaf-1 in a Fluorescent assay. The conditions noted are these: read-out: EC50_Mean.

Experiment [2] has as its target T2, Caspase-3 (Homo sapiens, UniProt P42574).
T2 sequence (P42574 whole entry): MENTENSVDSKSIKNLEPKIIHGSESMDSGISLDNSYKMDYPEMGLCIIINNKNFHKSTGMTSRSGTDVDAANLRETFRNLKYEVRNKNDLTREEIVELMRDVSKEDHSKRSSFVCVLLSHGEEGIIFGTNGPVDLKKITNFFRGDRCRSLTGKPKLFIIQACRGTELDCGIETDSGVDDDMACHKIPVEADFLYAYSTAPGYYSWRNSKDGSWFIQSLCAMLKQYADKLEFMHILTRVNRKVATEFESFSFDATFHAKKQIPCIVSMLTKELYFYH
Briefly: caspase-3 inhibitors as off-family protease, SAR follow-up, selectivity assay for SENP protease inhibitor project, biochemical, luminescence, set 2 (AID 588599).

Experiment [3] concerns the target T3, Sentrin-specific protease 7 (Homo sapiens, UniProt Q9BQF6).
T3 sequence (Q9BQF6 whole entry): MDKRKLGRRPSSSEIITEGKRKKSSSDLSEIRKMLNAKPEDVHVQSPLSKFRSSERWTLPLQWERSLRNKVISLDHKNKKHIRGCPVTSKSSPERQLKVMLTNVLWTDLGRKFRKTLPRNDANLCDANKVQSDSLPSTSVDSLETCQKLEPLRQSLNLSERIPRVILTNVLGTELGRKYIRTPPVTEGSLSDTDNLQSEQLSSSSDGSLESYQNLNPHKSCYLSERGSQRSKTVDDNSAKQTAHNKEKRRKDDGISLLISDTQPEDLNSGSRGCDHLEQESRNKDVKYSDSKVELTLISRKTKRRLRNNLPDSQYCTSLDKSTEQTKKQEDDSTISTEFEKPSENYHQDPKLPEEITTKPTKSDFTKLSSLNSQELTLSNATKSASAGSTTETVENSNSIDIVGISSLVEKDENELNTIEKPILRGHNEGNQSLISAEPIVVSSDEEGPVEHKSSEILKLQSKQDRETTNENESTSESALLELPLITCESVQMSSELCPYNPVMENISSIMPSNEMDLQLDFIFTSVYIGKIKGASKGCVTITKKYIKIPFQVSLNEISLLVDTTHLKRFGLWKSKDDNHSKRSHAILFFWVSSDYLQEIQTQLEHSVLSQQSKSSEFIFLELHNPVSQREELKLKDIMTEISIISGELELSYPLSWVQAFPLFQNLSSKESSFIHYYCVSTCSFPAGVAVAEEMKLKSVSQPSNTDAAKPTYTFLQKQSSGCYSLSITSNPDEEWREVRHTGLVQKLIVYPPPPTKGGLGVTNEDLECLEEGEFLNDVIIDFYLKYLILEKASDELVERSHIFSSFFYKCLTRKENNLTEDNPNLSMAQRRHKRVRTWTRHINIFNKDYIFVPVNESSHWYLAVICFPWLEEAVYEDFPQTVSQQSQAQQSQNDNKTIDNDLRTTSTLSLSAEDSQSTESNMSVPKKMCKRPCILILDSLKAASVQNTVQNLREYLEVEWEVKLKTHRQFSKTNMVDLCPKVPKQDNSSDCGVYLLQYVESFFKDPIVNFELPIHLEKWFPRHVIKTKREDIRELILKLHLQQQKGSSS
Briefly: SENP7 protease inhibitors, SAR follow-up, biochemical, luminescence, set 2 (AID 588600).

Experiment [4] concerns the target T3, Sentrin-specific protease 7. Briefly: SENP7 protease inhibitors, SAR follow-up, biochemical, luminescence (AID 504497).
The target of experiment [5] is T4, Sentrin-specific protease 8 (Homo sapiens, UniProt Q96LD8).
T4 sequence (Q96LD8 whole entry): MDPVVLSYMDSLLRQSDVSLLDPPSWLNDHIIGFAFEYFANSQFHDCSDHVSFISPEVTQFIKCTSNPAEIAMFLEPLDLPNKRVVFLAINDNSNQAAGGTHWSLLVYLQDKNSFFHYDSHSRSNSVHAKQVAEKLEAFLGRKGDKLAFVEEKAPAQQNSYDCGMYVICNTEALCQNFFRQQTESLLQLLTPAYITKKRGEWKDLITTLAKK
Briefly: SENP8 protease inhibitors, SAR follow-up, biochemical, luminescence, set 2 (AID 588601).

The target in experiment [6] is T5, Sentrin-specific protease 6 (Homo sapiens, UniProt Q9GZR1).
T5 sequence (Q9GZR1 whole entry): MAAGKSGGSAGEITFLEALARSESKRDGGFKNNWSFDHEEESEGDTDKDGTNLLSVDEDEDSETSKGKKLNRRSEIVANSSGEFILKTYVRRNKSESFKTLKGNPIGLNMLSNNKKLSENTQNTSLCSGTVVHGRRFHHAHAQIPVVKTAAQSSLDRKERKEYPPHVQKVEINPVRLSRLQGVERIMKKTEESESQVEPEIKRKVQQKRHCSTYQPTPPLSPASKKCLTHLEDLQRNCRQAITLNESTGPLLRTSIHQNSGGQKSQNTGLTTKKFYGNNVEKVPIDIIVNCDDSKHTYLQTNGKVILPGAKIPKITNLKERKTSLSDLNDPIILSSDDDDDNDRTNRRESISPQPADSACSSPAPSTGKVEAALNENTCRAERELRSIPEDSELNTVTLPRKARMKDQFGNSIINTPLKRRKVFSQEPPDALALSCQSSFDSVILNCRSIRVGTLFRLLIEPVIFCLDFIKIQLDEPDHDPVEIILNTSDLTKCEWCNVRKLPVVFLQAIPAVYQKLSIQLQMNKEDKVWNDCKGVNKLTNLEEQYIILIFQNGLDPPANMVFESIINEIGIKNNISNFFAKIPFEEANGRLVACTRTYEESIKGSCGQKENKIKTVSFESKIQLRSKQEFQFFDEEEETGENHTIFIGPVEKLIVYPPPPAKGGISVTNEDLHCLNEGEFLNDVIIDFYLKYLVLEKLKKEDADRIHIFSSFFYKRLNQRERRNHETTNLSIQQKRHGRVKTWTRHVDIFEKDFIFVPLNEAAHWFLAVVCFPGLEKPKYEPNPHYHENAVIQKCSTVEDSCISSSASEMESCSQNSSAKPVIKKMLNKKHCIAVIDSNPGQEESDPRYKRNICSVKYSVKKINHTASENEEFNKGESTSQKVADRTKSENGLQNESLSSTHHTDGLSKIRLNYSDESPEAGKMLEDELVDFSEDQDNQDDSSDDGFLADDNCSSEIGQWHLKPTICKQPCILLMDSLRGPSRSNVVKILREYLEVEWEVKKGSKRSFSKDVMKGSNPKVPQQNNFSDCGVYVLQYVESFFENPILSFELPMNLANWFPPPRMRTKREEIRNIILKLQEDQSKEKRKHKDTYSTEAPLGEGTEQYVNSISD
The experiment is described as follows: SAR Analysis of small molecule inhibitors of Sentrin-specific protease 6 (SENP6) using a Luminescent assay. [Related pubchem assays (depositor defined):AID2582, AID2599].

In experiment [7] the target is T2, Caspase-3. Briefly: SAR Analysis of small molecule inhibitors of Sentrin-specific proteases (SENPs) using a Caspase-3 Selectivity assay. [Related pubchem assays (depositor defined):AID2540, AID2599, AID434973, AID489001].
For experiment [8], the target named is T5, Sentrin-specific protease 6. Briefly: SENP6 protease inhibitors, SAR follow-up, biochemical, luminescence, set 2 (AID 588598).
Experiment [9] has as its target T4, Sentrin-specific protease 8. Briefly: SENP8 protease inhibitors, SAR follow-up, biochemical, luminescence (AID 504501).
Experiment [10] deals with Melanin-concentrating hormone receptor 1 (Homo sapiens, UniProt Q99705). The experiment is described as follows: Late-stage fluorescence-based counterscreen for antagonists of the G-protein coupled receptor 7 (GPR7): cell-based dose response assay to identify antagonists of the melanin-concentrating hormone receptor 1 (MCHR1) Set 6. Background: Counterscreens check selectivity or assay interference.
Sequence of Melanin-concentrating hormone receptor 1 (Q99705 whole entry): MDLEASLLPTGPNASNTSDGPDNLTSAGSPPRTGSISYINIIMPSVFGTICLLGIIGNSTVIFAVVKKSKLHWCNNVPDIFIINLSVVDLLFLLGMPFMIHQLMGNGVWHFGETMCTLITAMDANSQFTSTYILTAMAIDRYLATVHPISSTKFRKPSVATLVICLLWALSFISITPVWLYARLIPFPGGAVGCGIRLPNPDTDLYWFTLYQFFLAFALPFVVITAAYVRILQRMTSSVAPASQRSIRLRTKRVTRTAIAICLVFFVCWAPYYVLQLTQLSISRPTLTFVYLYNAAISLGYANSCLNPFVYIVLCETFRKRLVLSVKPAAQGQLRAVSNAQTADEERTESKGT

In experiment [11] the target is T6, Neuropeptides B/W receptor type 1 (Homo sapiens, UniProt P48145).
T6 sequence (P48145 whole entry): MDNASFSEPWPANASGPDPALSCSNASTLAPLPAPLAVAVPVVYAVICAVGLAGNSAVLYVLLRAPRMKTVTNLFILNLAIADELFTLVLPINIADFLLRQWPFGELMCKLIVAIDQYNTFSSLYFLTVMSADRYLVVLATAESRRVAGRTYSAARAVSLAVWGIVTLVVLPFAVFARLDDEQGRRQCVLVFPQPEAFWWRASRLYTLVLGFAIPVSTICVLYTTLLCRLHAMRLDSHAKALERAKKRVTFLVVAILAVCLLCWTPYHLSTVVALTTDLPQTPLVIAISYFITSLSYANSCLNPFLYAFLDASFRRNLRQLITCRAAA
The experiment is described as follows: GPR7 antagonist potency, late-stage follow-up, cell-based, fluorescence, dose response, set 6 (AID 588583).

Experiment [12] addresses Aurora kinase A (Homo sapiens, UniProt O14965).
The target of experiment [13] is Vascular endothelial growth factor receptor 2 (Homo sapiens, UniProt P35968).
Sequence of Vascular endothelial growth factor receptor 2 (P35968 whole entry): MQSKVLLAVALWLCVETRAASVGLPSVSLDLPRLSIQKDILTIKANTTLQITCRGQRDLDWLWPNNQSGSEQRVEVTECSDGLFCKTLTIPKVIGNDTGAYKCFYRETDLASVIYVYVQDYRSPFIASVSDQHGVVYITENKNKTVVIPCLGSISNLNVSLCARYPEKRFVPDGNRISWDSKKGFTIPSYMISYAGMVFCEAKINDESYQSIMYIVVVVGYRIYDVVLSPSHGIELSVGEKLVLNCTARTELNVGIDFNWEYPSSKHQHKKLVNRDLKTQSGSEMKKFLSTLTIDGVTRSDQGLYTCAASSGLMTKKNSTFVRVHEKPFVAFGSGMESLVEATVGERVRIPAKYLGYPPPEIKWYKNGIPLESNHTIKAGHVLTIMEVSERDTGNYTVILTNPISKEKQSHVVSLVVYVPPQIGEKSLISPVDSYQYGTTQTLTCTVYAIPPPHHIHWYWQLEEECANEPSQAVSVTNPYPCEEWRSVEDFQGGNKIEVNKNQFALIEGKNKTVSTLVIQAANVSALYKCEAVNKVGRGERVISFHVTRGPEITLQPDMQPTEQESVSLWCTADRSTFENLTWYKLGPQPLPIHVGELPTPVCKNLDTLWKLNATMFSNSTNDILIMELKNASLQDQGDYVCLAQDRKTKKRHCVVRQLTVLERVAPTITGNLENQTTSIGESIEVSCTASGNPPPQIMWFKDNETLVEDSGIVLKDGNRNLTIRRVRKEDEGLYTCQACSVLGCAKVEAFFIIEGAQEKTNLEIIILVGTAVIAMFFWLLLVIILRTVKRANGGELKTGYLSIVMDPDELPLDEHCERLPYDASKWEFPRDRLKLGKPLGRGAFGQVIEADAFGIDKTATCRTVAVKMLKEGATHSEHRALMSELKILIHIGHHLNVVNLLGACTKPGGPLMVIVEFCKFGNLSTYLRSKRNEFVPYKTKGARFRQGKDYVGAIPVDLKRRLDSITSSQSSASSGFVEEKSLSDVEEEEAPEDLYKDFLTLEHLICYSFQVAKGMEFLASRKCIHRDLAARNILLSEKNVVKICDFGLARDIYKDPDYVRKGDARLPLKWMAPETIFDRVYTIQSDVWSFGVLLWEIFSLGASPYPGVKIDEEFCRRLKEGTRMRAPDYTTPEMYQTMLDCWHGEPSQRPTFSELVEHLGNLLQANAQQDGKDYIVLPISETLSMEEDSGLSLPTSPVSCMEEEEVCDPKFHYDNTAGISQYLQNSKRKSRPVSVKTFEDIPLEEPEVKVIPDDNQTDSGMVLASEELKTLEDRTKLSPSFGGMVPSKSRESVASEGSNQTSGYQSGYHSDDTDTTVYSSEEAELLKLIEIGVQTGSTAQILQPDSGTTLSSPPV
Experiment [14] deals with Aurora kinase B (Homo sapiens, UniProt Q96GD4).
Sequence of Aurora kinase B (Q96GD4 whole entry): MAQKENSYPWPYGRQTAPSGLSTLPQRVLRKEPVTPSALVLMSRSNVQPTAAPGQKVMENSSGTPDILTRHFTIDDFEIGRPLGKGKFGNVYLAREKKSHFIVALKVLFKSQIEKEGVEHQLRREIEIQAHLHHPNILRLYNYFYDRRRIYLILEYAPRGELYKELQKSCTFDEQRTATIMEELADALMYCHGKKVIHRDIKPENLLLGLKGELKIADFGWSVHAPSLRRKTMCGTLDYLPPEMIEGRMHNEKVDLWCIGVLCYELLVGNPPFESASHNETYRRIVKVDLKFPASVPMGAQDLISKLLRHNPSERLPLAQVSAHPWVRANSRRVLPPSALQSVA

The source made the active and inactive calls. Cut-off read from the data, not from the text of the source, for most assays here: actives have a measured IC50 and inactives only a lower limit.
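Throughout, for EC50 Mean: caspase-3 cleavage of fluorogenic Rh110 DEVD substrate downstream of apoptosome activation.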

Sequence of Aurora kinase A (O14965 whole entry): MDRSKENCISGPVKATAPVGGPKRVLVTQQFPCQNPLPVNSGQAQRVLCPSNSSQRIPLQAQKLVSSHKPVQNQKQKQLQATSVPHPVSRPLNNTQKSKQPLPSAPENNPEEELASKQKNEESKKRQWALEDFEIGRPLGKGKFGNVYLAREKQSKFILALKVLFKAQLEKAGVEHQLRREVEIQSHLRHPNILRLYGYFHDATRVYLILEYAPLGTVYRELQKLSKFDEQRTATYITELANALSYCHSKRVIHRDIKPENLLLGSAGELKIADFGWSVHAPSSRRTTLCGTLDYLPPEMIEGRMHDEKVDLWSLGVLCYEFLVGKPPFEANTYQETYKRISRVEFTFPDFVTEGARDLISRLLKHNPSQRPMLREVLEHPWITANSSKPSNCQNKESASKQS

`CCOc1ccccc1NC(=O)CCS(=O)(=O)c1ccc2c(c1)oc(=O)n2C`: the EC50 in experiment [1] was > 100 µM (inactive).

For the compound `CCCCc1ccc2nc(NC(=O)c3ccsc3)sc2c1`, the IC50 (in general, the concentration that gives 50% inhibition) in [2] is 5.28 µM (active); in [3] it was 1.96 µM (active); in [4], 1.9 µM (active); in experiment [5], 1.8 µM (active); in experiment [6], 2.8 µM (active); in experiment [7] it was 6.2 µM (active). Also, the figures for the concentration for half-maximal inhibition (IC50) in [8] and in experiment [9] were 1.84 µM (active) and 3.1 µM (active), respectively.

Regarding `Cc1cccc(-c2nc(/C=C/c3ccccc3)no2)c1`, the IC50 is 48.6 µM (active) in experiment [2]; 14.9 µM (active) in experiment [3]; 16 µM (active) in experiment [4]; 16.7 µM (active) in experiment [5]; 49 µM (active) in experiment [6]; 52 µM (active) in experiment [7]. For the same compound, the half-maximal inhibitory concentration (IC50) is 16.7 µM (active) in experiment [8] and 48 µM (active) in experiment [9].

As for `COc1ccc(Oc2c(CO)cnn(Cc3cccc4ccccc34)c2=O)cc1`, the 50% inhibitory concentration (IC50) in experiment [10] and in experiment [11] was 2.99 µM (active) throughout.

On to `N#CC(c1cccs1)c1c(Cl)cnn(Cc2cccc3ccccc23)c1=O` (centres undefined), for which the IC50 in experiment [10] and in experiment [11] was 1.07 µM (active) throughout.

Consider `Cc1ccc(-c2nc3ccc(Br)cc3c(C(=O)O)c2CC(=O)O)cc1`, for which the Ki (commonly a dissociation constant, usually derived from enzyme kinetics or from competition with a known ligand) in experiment [12] was 0.0794 µM (active); in experiment [13], 0.501 µM (active); in experiment [14], 0.158 µM (active).
